This passage reports EC50 and IC50 results from patent publication US10294229B2, “Heteroaryl substituted aminopyridine compounds” (BRISTOL-MYERS SQUIBB COMPANY, priority 2015, dated 2019).

A word on the EC50: it is the concentration giving half of the maximal effect. As usually defined, the IC50 is the point on the concentration scale where inhibition reaches its midpoint.

Assay [1] deals with Human whole blood stimulated with a TLR2 agonist (lipoteichoic acid), IL-6 levels. Briefly: IRAK4 Whole Blood Assay. It counts as cell-based. Conditions: Homo sapiens, lipoteichoic acid 10 μg/mL. The essentials: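 IL-6 was quantified by cytometric bead assay in supernatants of human blood (ACD-A) stimulated for 5 h with lipoteichoic acid at 10 μg/mL final. Compound exposure preceded stimulation for 60 min at 37 °C, 5% CO2.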

The target of the next assay is IRAK4 (Homo sapiens (Human), UniProt Q9NWZ3). Briefly: IRAK4 Inhibition Assay. The format is biochemical. The note with it: ATP 500 μM; IRAK4 0.6 nM. The procedure, abridged: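 Mobility-shift kinase assay: 0.6 nM IRAK4, 500 μM ATP, 1.5 μM fluorescent peptide, 60 min, room temperature. Percent inhibition was normalised between enzyme-free and DMSO-only wells.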
IRAK4, sequence (Q9NWZ3 whole entry, species assumed): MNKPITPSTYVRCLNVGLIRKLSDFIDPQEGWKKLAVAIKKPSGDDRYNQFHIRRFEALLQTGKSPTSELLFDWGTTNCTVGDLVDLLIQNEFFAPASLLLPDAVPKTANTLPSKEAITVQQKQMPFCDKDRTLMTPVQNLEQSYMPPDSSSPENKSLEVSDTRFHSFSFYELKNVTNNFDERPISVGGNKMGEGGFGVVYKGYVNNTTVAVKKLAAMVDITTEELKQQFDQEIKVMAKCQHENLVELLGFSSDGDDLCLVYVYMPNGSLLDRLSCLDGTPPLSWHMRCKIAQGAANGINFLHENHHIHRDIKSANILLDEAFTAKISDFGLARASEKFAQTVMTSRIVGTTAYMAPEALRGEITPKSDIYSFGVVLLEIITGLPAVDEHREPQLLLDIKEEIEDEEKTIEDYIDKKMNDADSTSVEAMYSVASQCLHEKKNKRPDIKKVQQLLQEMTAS

The compound `CC(=O)N1CC(Cn2cnc(-c3cnc(-n4ncc5cc(C#N)cnc54)cc3NC(C)C)c2)C1` [Example 234, 1-(5-(1-((1-acetylazetidin-3-yl)methyl)-1H-imidazol-4-yl)-4-(isopropylamino)pyridin-2-yl)-1H-pyrazolo[3,4-b]pyridine-5-carbonitrile] yielded an EC50 in assay [1] of 440 nM. The half-maximal inhibitory concentration (IC50) on IRAK4 was 16 nM.

In assay [1], `CC(C)Nc1cc(-n2ncc3cc(C#N)cnc32)ncc1-c1cn(CC2COC2)cn1` [Example 236, 1-(4-(isopropylamino)-5-(1-(oxetan-3-ylmethyl)-1H-imidazol-4-yl)pyridin-2-yl)-1H-pyrazolo[3,4-b]pyridine-5-carbonitrile] returned an EC50 of 990 nM. In addition, the IC50 on IRAK4 was 11 nM.

In the case of `CCCn1cc(-c2cnc(-n3ncc4cc(C#N)cnc43)cc2Nc2cnn(CC(F)F)c2)cn1` [Example 256, 1-(4-((1-(2,2-difluoroethyl)-1H-pyrazol-4-yl)amino)-5-(1-propyl-1H-pyrazol-4-yl)pyridin-2-yl)-1H-pyrazolo[3,4-b]pyridine-5-carbonitrile], a half-maximal effect in assay [1] (EC50) was put at 600 nM. The IC50 at IRAK4 came to 14 nM.

As to `CC(C)Nc1cc(-n2ncc3cc(C#N)cnc32)ncc1-n1cc(C2CCCC2)nn1` [Example 266, 1-(5-(4-cyclopentyl-1H-1,2,3-triazol-1-yl)-4-(isopropylamino)pyridin-2-yl)-1H-pyrazolo[3,4-b]pyridine-5-carbonitrile], in assay [1], the EC50 came out at 520 nM. In addition, the IC50 on IRAK4 came to 14 nM.

In the case of `CCCc1cn(-c2cnc(-n3ncc4cc(C#N)c(N)nc43)cc2NC2COC2)nn1` [Example 281, 6-amino-1-(4-(oxetan-3-ylamino)-5-(4-propyl-1H-1,2,3-triazol-1-yl)pyridin-2-yl)-1H-pyrazolo[3,4-b]pyridine-5-carbonitrile], a half-maximal response in assay [1] (EC50) required 380 nM. At IRAK4, the half-inhibitory concentration (IC50) is 7 nM.

`CCCc1cn(-c2cnc(-n3ncc4cc(Cl)cnc43)cc2NC(C)C)nn1` [Example 282, 2-(5-chloro-1H-pyrazolo[3,4-b]pyridin-1-yl)-N-isopropyl-5-(4-propyl-1H-1,2,3-triazol-1-yl)pyridin-4-amine] gave an EC50 in assay [1] of 2260 nM. Besides, the IC50 on IRAK4 was determined as 13 nM.

In the case of `CCCc1cn(-c2cnc(-n3ncc4cc(C#N)cnc43)cc2NC2CCOCC2)nn1` [Example 283, 1-(5-(4-propyl-1H-1,2,3-triazol-1-yl)-4-((tetrahydro-2H-pyran-4-yl)amino)pyridin-2-yl)-1H-pyrazolo[3,4-b]pyridine-5-carbonitrile], it took 1280 nM to reach a half-maximal effect in assay [1] (EC50). Besides, the IC50 at IRAK4 amounted to 7 nM.

Compound `CCCc1cn(-c2cnc(-n3cnc4cc(C#N)cnc43)cc2N[C@@H](C)CO)nn1` [Example 285, (S)-3-(4-((1-hydroxypropan-2-yl)amino)-5-(4-propyl-1H-1,2,3-triazol-1-yl)pyridin-2-yl)-3H-imidazo[4,5-b]pyridine-6-carbonitrile] registered an EC50 in assay [1] of 6400 nM. The IC50 on IRAK4 came to 17 nM.

`CCC(O)Cc1cn(-c2cnc(-n3ncc4cc(C#N)cnc43)cc2NC(C)C)nn1` (stereo not shown) [Example 303, 1-(5-(4-(2-hydroxybutyl)-1H-1,2,3-triazol-1-yl)-4-(isopropylamino)pyridin-2-yl)-1H-pyrazolo[3,4-b]pyridine-5-carbonitrile] registered an EC50 in assay [1] of 1180 nM. The IC50 at IRAK4 was found to be 16 nM.

The compound `CC(C)Cc1cn(-c2cnc(-n3ncc4cc(C#N)cnc43)cc2NC(C)C)nn1` [Example 305, 1-(5-(4-isobutyl-1H-1,2,3-triazol-1-yl)-4-(isopropylamino)pyridin-2-yl)-1H-pyrazolo[3,4-b]pyridine-5-carbonitrile] returned a half-maximal effective concentration (EC50) in assay [1] of 550 nM. Further, the IC50 at IRAK4 is 10 nM.

Consider `CC(C)CCc1cn(-c2cnc(-n3ncc4cc(C#N)cnc43)cc2NC(C)C)nn1` [Example 307, 1-(5-(4-isopentyl-1H-1,2,3-triazol-1-yl)-4-(isopropylamino)pyridin-2-yl)-1H-pyrazolo[3,4-b]pyridine-5-carbonitrile], for which the EC50 in assay [1] amounted to 580 nM. For the same compound, on IRAK4, the IC50 turned out to be 3 nM.

`CC(C)Nc1cc(-n2ncc3cc(C#N)cnc32)ncc1-n1cc(C[C@@H](O)c2ccccc2)nn1` [Example 315, (R)-1-(5-(4-(2-hydroxy-2-phenylethyl)-1H-1,2,3-triazol-1-yl)-4-(isopropylamino)pyridin-2-yl)-1H-pyrazolo[3,4-b]pyridine-5-carbonitrile] had an EC50 in assay [1] of 1780 nM. The IC50 on IRAK4 was found to be 5 nM.

For the compound `CC(C)Nc1cc(-n2ncc3cc(C#N)cnc32)ncc1-n1cc(CCc2ccccc2)nn1` [Example 319, 1-(4-(isopropylamino)-5-(4-phenethyl-1H-1,2,3-triazol-1-yl)pyridin-2-yl)-1H-pyrazolo[3,4-b]pyridine-5-carbonitrile], the 50% effective concentration (EC50) in assay [1] amounted to 920 nM. Further, the IC50 at IRAK4 came to 2 nM.

`CCCCc1cn(-c2cnc(-n3ncc4cc(C#N)cnc43)cc2NC(C)C)nn1` [Example 320, 1-(5-(4-butyl-1H-1,2,3-triazol-1-yl)-4-(isopropylamino)pyridin-2-yl)-1H-pyrazolo[3,4-b]pyridine-5-carbonitrile] showed an EC50 in assay [1] of 930 nM. At IRAK4, the IC50 was determined as 3 nM.

The compound `CC(C)Nc1cc(-n2ncc3cc(C#N)cnc32)ncc1-n1cc(CCC#N)nn1` [Example 321, 1-(5-(4-(2-cyanoethyl)-1H-1,2,3-triazol-1-yl)-4-(isopropylamino)pyridin-2-yl)-1H-pyrazolo[3,4-b]pyridine-5-carbonitrile] yielded an EC50 in assay [1] of 570 nM. The IC50 at IRAK4 is 18 nM.

In assay [1], `CC(C)Nc1cc(-n2ncc3cc(C#N)cnc32)ncc1-n1cc(CCCC#N)nn1` [Example 323, 1-(5-(4-(3-cyanopropyl)-1H-1,2,3-triazol-1-yl)-4-(isopropylamino)pyridin-2-yl)-1H-pyrazolo[3,4-b]pyridine-5-carbonitrile] returned an EC50 of 1310 nM. For the same compound, the IC50 at IRAK4 was 6 nM.

As for `CCN(CC)Cc1cn(-c2cnc(-n3ncc4cc(C#N)cnc43)cc2NC(C)C)nn1` [Example 324, 1-(5-(4-((diethylamino)methyl)-1H-1,2,3-triazol-1-yl)-4-(isopropylamino)pyridin-2-yl)-1H-pyrazolo[3,4-b]pyridine-5-carbonitrile], the 50% effective concentration (EC50) in assay [1] was 3410 nM. On IRAK4, the IC50 was determined as 18 nM.

Compound `CCc1cn(-c2cnc(-n3ncc4cc(C#N)cnc43)cc2NC(C)C)nn1` [Example 325, 1-(5-(4-ethyl-1H-1,2,3-triazol-1-yl)-4-(isopropylamino)pyridin-2-yl)-1H-pyrazolo[3,4-b]pyridine-5-carbonitrile] yielded an EC50 in assay [1] of 990 nM. The IC50 at IRAK4 turned out to be 16 nM.

`CC(C)Nc1cc(-n2ncc3cc(C#N)cnc32)ncc1-n1cc(CS(=O)(=O)c2ccccc2)nn1` [Example 332, 1-(4-(isopropylamino)-5-(4-((phenylsulfonyl)methyl)-1H-1,2,3-triazol-1-yl)pyridin-2-yl)-1H-pyrazolo[3,4-b]pyridine-5-carbonitrile] gave an EC50 in assay [1] of 2050 nM. The IC50 at IRAK4 worked out at 9 nM.

Regarding `CC(C)Nc1cc(-n2ncc3cc(C#N)cnc32)ncc1-n1cc(C2CCN(C(=O)OC(C)(C)C)CC2)nn1` [Example 333, tert-butyl 4-(1-(6-(5-cyano-1H-pyrazolo[3,4-b]pyridin-1-yl)-4-(isopropylamino)pyridin-3-yl)-1H-1,2,3-triazol-4-yl)piperidine-1-carboxylate], in assay [1], the EC50 was found to be 4700 nM. In addition, the IC50 on IRAK4 was 14 nM.
